Assay results reported in patent US8952024B2, “Herbicidal pyrimidone derivatives” (E I du Pont de Nemours and Company, priority 2009, dated 2015).
Like-named read-outs stand apart in the source and are kept apart here.

How the values were obtained:
Type in all cases: in vivo
[1] = tested on: blackgrass (Alopecurus myosuroides); assay: Test B pre-/postemergence plant response; details: for pest or weed control at 62 g/ha: 62 g ai/ha
Summary of the method: (§1)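 Response scores were assigned visually after 13 to 15 days in a greenhouse, comparing treated pots with controls on a 0–100 scale where 100 denotes complete control. Preemergence treatments went onto freshly seeded loam/sand soil; postemergence treatments onto plants 2 to 18 cm tall.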

[2] = tested on: lambsquarters (Chenopodium album); assay: Test B pre-/postemergence plant response; details: for pest or weed control at 62 g/ha: 62 g ai/ha
Summary of the method: as §1

[3] = tested on: Surinam grass (Brachiaria decumbens); assay: Test B pre-/postemergence plant response
Summary of the method: as §1

[4] = tested on: soybean (Glycine max); assay: Test B pre-/postemergence plant response
Summary of the method: as §1

[5] = tested on: velvetleaf (Abutilon theophrasti); assay: Test B pre-/postemergence plant response
Summary of the method: as §1

[6] = tested on: corn (Zea mays); assay: Test B pre-/postemergence plant response; details: for Corn plant response rating (crop injury, 0 = no effect, 100 = complete kill) at 31 g/ha: 31 g ai/ha, scale 0 to 100 (0 no effect, 100 complete control)
Summary of the method: as §1

[7] = tested on: canarygrass (Phalaris minor); assay: Test B postemergence plant response; details: Postemergence
Summary of the method: (§2)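 Visual ratings from 0 (no effect) to 100 (complete control), made against controls 13–15 days after treatment, kept in a greenhouse. Compounds were applied postemergence to potted plants at the 1- to 4-leaf stage (2–18 cm).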

[8] = tested on: windgrass (Apera spica-venti); assay: Test B postemergence plant response; details: Apera spica-venti, post-emergence, 360 h; Postemergence, 125 g ai/ha; visual rating after 13 to 15 days, scale 0 (no effect) to 100 (complete control)
Summary of the method: as §2

[9] = tested on: winter barley (Hordeum vulgare); assay: Test B postemergence plant response; details: Postemergence
Summary of the method: as §2

[10] = tested on: chickweed (Stellaria media); assay: Test B postemergence plant response; details: Postemergence
Summary of the method: as §2

[11] = Postemergence, 250 g ai/ha, scale 0 to 100
[12] = Preemergence, 125 g ai/ha, 0 to 100 scale

Cc1c(F)cccc1-n1c(-c2ccccc2)ncc(C(=O)C2=C(O)CCCC2=O)c1=O [Compound 47, 3-(3-fluoro-2-methylphenyl)-5-[(2-hydroxy-6-oxo-1-cyclohexen-1-yl)carbonyl]-2-phenyl-4(3H)-pyrimidinone]
pest or weed control at 62 g/ha ([1]; Alopecurus myosuroides, post-emergence, 360 h, Postemergence, scale 0 (no effect) to 100 (complete control), 13 to 15 days, read-out: Plant response rating, Blackgrass): 20%
pest or weed control at 125 g/ha ([1]; Alopecurus myosuroides, post-emergence, 360 h, Postemergence, 125 g ai/ha, visual rating after 13 to 15 days, scale 0 (no effect) to 100 (complete control)): 25%
pest or weed control at 250 g/ha ([1]; Alopecurus myosuroides, pre-emergence, 360 h, 250 g ai/ha, Preemergence, 0 to 100 scale, read-out: Plant response rating, Blackgrass): 5%
pest or weed control at 31 g/ha ([1]; Alopecurus myosuroides, pre-emergence, 360 h, Preemergence, 31 g ai/ha, scale 0 to 100 (0 no effect, 100 complete control), read-out: Plant response rating, Blackgrass): 0%
pest or weed control at 62 g/ha ([1]; Alopecurus myosuroides, pre-emergence, 360 h, Preemergence, scale 0 to 100, 0 no effect, 100 complete control, read-out: Plant response rating, Blackgrass): 5%
Blackgrass plant response rating [1, 11]: 30
Blackgrass plant response rating [1, 12]: 5
pest or weed control at 62 g/ha ([2]; Chenopodium album, post-emergence, Postemergence, scale 0 (no effect) to 100 (complete control), 13 to 15 days, read-out: Plant response rating, Lambsquarters): 98%
pest or weed control at 125 g/ha ([2]; Chenopodium album, post-emergence, Postemergence, 125 g ai/ha, visual rating after 13 to 15 days, scale 0 (no effect) to 100 (complete control)): 98%
pest or weed control at 250 g/ha ([2]; Chenopodium album, pre-emergence, 250 g ai/ha, Preemergence, 0 to 100 scale, read-out: Plant response rating, Lambsquarters): 100%
pest or weed control at 31 g/ha ([2]; Chenopodium album, pre-emergence, Preemergence, 31 g ai/ha, scale 0 to 100 (0 no effect, 100 complete control), read-out: Plant response rating, Lambsquarters): 100%
pest or weed control at 62 g/ha ([2]; Chenopodium album, pre-emergence, Preemergence, scale 0 to 100, 0 no effect, 100 complete control, read-out: Plant response rating, Lambsquarters): 100%
Lambsquarters plant response rating [2, 11]: 100
Lambsquarters plant response rating [2, 12]: 100
Surinam Grass plant response rating [3, 12]: 100
pest or weed control at 62 g/ha ([3]; Urochloa decumbens, post-emergence, Postemergence, 62 g ai/ha, scale 0 (no effect) to 100 (complete control), 13 to 15 days, read-out: Plant response rating, Surinam Grass): 95%
pest or weed control at 125 g/ha ([3]; Urochloa decumbens, post-emergence, Postemergence, 125 g ai/ha, visual rating after 13 to 15 days, scale 0 (no effect) to 100 (complete control)): 98%
pest or weed control at 250 g/ha ([3]; Urochloa decumbens, pre-emergence, 250 g ai/ha, Preemergence, 0 to 100 scale, read-out: Plant response rating, Surinam Grass): 100%
pest or weed control at 31 g/ha ([3]; Urochloa decumbens, pre-emergence, Preemergence, 31 g ai/ha, scale 0 to 100 (0 no effect, 100 complete control), read-out: Plant response rating, Surinam Grass): 85%
plant injury at 62 g/ha ([4]; Glycine max, post-emergence, Postemergence, 62 g ai/ha, scale 0 (no effect) to 100 (complete control), 13 to 15 days, read-out: Plant response rating, Soybean): 95%
plant injury at 125 g/ha ([4]; Glycine max, post-emergence, Postemergence, 125 g ai/ha, visual rating after 13 to 15 days, scale 0 (no effect) to 100 (complete control)): 98%
plant injury at 250 g/ha ([4]; Glycine max, pre-emergence, 250 g ai/ha, Preemergence, 0 to 100 scale, read-out: Plant response rating, Soybean): 0%
plant injury at 31 g/ha ([4]; Glycine max, pre-emergence, Preemergence, 31 g ai/ha, scale 0 to 100 (0 no effect, 100 complete control), read-out: Plant response rating, Soybean): 0%
Soybean plant response rating [4, 12]: 0
pest or weed control at 62 g/ha ([5]; Abutilon theophrasti, post-emergence, 360 h, Postemergence, 62 g ai/ha, scale 0 (no effect) to 100 (complete control), 13 to 15 days, read-out: Plant response rating, Velvetleaf): 85%
pest or weed control at 125 g/ha ([5]; Abutilon theophrasti, post-emergence, 360 h, Postemergence, 125 g ai/ha, visual rating after 13 to 15 days, scale 0 (no effect) to 100 (complete control)): 98%
pest or weed control at 250 g/ha ([5]; Abutilon theophrasti, pre-emergence, 360 h, 250 g ai/ha, Preemergence, 0 to 100 scale, read-out: Plant response rating, Velvetleaf): 100%
pest or weed control at 31 g/ha ([5]; Abutilon theophrasti, pre-emergence, 360 h, Preemergence, 31 g ai/ha, scale 0 to 100 (0 no effect, 100 complete control), read-out: Plant response rating, Velvetleaf): 80%
Velvetleaf plant response rating [5, 12]: 90
Corn plant response rating [6, 12]: 0
Corn plant response rating (crop injury, 0 = no effect, 100 = complete kill) at 31 g/ha ([6]; Zea mays, post-emergence, Postemergence): 65%
Corn plant response rating (crop injury, 0 = no effect, 100 = complete kill) at 125 g/ha ([6]; Zea mays, post-emergence, Postemergence, 125 g ai/ha, visual rating after 13 to 15 days, scale 0 (no effect) to 100 (complete control)): 80%
Corn plant response rating (crop injury, 0 = no effect, 100 = complete kill) at 250 g/ha ([6]; Zea mays, pre-emergence, 250 g ai/ha, Preemergence, 0 to 100 scale): 0%
Corn plant response rating (crop injury, 0 = no effect, 100 = complete kill) at 31 g/ha ([6]; Zea mays, pre-emergence, Preemergence): 0%
Corn plant response rating (crop injury, 0 = no effect, 100 = complete kill) at 62 g/ha ([6]; Zea mays, pre-emergence, Preemergence, 62 g ai/ha, scale 0 to 100, 0 no effect, 100 complete control): 0%
pest or weed control at 31 g/ha ([7]; Phalaris minor, post-emergence, 360 h, 31 g ai/ha, scale 0 to 100 (0 no effect, 100 complete control), read-out: Plant response rating, Canarygrass): 20%
pest or weed control at 62 g/ha ([7]; Phalaris minor, post-emergence, 360 h, 62 g ai/ha, scale 0 (no effect) to 100 (complete control), 13 to 15 days, read-out: Plant response rating, Canarygrass): 30%
pest or weed control at 125 g/ha ([7]; Phalaris minor, post-emergence, 360 h, 125 g ai/ha, visual rating after 13 to 15 days, scale 0 (no effect) to 100 (complete control)): 40%
Canarygrass plant response rating ([7]; 250 g ai/ha, scale 0 to 100): 40
pest or weed control at 125 g/ha [8]: 80%
plant injury at 31 g/ha ([9]; Hordeum vulgare, post-emergence, 31 g ai/ha, scale 0 to 100 (0 no effect, 100 complete control), read-out: Plant response rating, Barley): 5%
plant injury at 62 g/ha ([9]; Hordeum vulgare, post-emergence, 62 g ai/ha, scale 0 (no effect) to 100 (complete control), 13 to 15 days, read-out: Plant response rating, Barley): 10%
plant injury at 125 g/ha ([9]; Hordeum vulgare, post-emergence, 125 g ai/ha, visual rating after 13 to 15 days, scale 0 (no effect) to 100 (complete control)): 10%
Barley plant response rating ([9]; 250 g ai/ha, scale 0 to 100): 35
Chickweed plant response rating ([10]; 250 g ai/ha, scale 0 to 100): 100
pest or weed control at 31 g/ha ([10]; Stellaria media, post-emergence, 360 h, 31 g ai/ha, scale 0 to 100 (0 no effect, 100 complete control), read-out: Plant response rating, Chickweed): 85%
pest or weed control at 62 g/ha ([10]; Stellaria media, post-emergence, 360 h, 62 g ai/ha, scale 0 (no effect) to 100 (complete control), 13 to 15 days, read-out: Plant response rating, Chickweed): 98%
pest or weed control at 125 g/ha ([10]; Stellaria media, post-emergence, 360 h, 125 g ai/ha, visual rating after 13 to 15 days, scale 0 (no effect) to 100 (complete control)): 100%
